According to the supplement of paper PMC8617591:

Legend:
[1] = tested on: Mycobacterium tuberculosis Erdman (autoluminescent); assay: GRinf, maximum normalised growth rate inhibition (unitless (-1 to 1)); higher = less effect (negative = killing)
Description: (§1)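 DiaMOND equipotent two-drug combination dose responses against autoluminescent M. tuberculosis Erdman in 8 in vitro models. Read-out is OD600, or luminescence for the intracellular and dormancy models, normalised to untreated wells. Hill-fit Einf, AUC25 and GRinf are potency metrics; FIC50 and FIC90 are Loewe-additivity fractional inhibitory concentrations, given as log2 (negative = synergy). Replicates are averaged.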

[2] = tested on: Mycobacterium tuberculosis Erdman (autoluminescent); assay: Einf, fitted maximum growth inhibition of combination (fraction); higher = stronger maximal inhibition
Description: as §1

[3] = tested on: Mycobacterium tuberculosis Erdman (autoluminescent); assay: FIC50 (Loewe) at 50% inhibition (log2); higher = more antagonistic
Description: as §1

[4] = tested on: Mycobacterium tuberculosis Erdman (autoluminescent); assay: FIC90 (Loewe) at 90% inhibition (log2); higher = more antagonistic
Description: as §1

[5] = tested on: Mycobacterium tuberculosis Erdman (autoluminescent); assay: AUC25, normalised area under dose response up to IC25 (fraction (0-1)); higher = more potent at low dose
Description: as §1

CC[C@@H](CO)NCCN[C@@H](CC)CO [ethambutol] + NNC(=O)c1ccncc1 [isoniazid]
Settings | AUC25, [5] | Einf, [2] | FIC50, [3] | FIC90, [4] | GRinf, [1]
in vitro model: acidic pH 5.7, time point: constant (~7 days, model-specific) | 0.134 | 0.693 | 1.2 | – | -0.17
in vitro model: acidic pH 5.7, time point: terminal (~4-5 doublings, model-specific) | 0.0706 | 0.919 | 0.67 | 0.229 | 0.00119
in vitro model: intracellular J774, time point: constant = terminal | – | 1 | – | -0.439 | -0.332

Settings | AUC25, [5] | Einf, [2] | FIC50, [3] | FIC90, [4] | GRinf, [1]
in vitro model: butyrate, time point: constant (~7 days, model-specific) | 0.075 | 0.933 | 0.509 | – | -0.0966
in vitro model: butyrate, time point: terminal (~4-5 doublings, model-specific) | 0.0681 | 0.973 | 0.525 | 0.423 | -0.109
in vitro model: cholesterol 0.05 mM, time point: constant (~7 days, model-specific) | 0.0891 | 0.73 | 0.389 | – | -0.157
in vitro model: cholesterol 0.05 mM, time point: terminal (~4-5 doublings, model-specific) | 0.0491 | 0.862 | 0.82 | – | -0.106
in vitro model: cholesterol-high 0.2 mM, time point: constant (~7 days, model-specific) | 0.0277 | 0.905 | 0.561 | – | -0.31
in vitro model: cholesterol-high 0.2 mM, time point: terminal (~4-5 doublings, model-specific) | 0.0319 | 1 | 0.775 | 0.501 | -0.731
in vitro model: dormancy (butyrate + nitrate, low O2), time point: constant (~7 days, model-specific) | 0.104 | 0.818 | -0.0762 | – | 0.454
in vitro model: dormancy (butyrate + nitrate, low O2), time point: terminal (~4-5 doublings, model-specific) | 0.0973 | 0.964 | -0.121 | -0.0702 | -0.0063
in vitro model: standard 7H9 glycerol, time point: constant = terminal | 0.0635 | 0.92 | 0.483 | 0.426 | 0.0262
in vitro model: valerate, time point: constant (~7 days, model-specific) | 0.111 | 0.897 | 0.108 | – | 0.0449
in vitro model: valerate, time point: terminal (~4-5 doublings, model-specific) | 0.0612 | 0.935 | 0.332 | 0.345 | 0.0607

COc1nc2ccc(Br)cc2cc1[C@@H](c1ccccc1)[C@@](O)(CCN(C)C)c1cccc2ccccc12 [bedaquiline] + NNC(=O)c1ccncc1 [isoniazid]
Settings | AUC25, [5] | Einf, [2] | FIC50, [3] | FIC90, [4] | GRinf, [1]
in vitro model: acidic pH 5.7, time point: constant (~7 days, model-specific) | 0.107 | 0.873 | 0.428 | – | -0.331
in vitro model: acidic pH 5.7, time point: terminal (~4-5 doublings, model-specific) | 0.0934 | 0.984 | 0.351 | 0.404 | -0.384
in vitro model: intracellular J774, time point: constant = terminal | – | 0.98 | – | 0.531 | -0.383

Settings | AUC25, [5] | Einf, [2] | FIC50, [3] | FIC90, [4] | GRinf, [1]
in vitro model: butyrate, time point: constant (~7 days, model-specific) | 0.0598 | 0.944 | 0.533 | 0.547 | -0.0886
in vitro model: butyrate, time point: terminal (~4-5 doublings, model-specific) | 0.0557 | 0.98 | 0.43 | 0.506 | -0.111
in vitro model: cholesterol 0.05 mM, time point: constant (~7 days, model-specific) | 0.102 | 0.729 | 0.373 | – | -0.169
in vitro model: cholesterol 0.05 mM, time point: terminal (~4-5 doublings, model-specific) | 0.0662 | 0.913 | 0.302 | 0.193 | -0.202
in vitro model: cholesterol-high 0.2 mM, time point: constant (~7 days, model-specific) | 0.0815 | 0.964 | 0.284 | 0.699 | -0.49
in vitro model: cholesterol-high 0.2 mM, time point: terminal (~4-5 doublings, model-specific) | 0.0507 | 0.996 | 0.335 | 0.25 | -0.658
in vitro model: dormancy (butyrate + nitrate, low O2), time point: constant (~7 days, model-specific) | 0.0656 | 0.92 | 0.646 | 0.194 | 0.179
in vitro model: dormancy (butyrate + nitrate, low O2), time point: terminal (~4-5 doublings, model-specific) | 0.0512 | 0.983 | 0.0908 | -0.202 | -0.0876
in vitro model: standard 7H9 glycerol, time point: constant = terminal | 0.0578 | 0.966 | -0.0769 | -0.0712 | -0.124
in vitro model: valerate, time point: constant (~7 days, model-specific) | 0.0996 | 0.946 | 0.561 | 0.24 | -0.194
in vitro model: valerate, time point: terminal (~4-5 doublings, model-specific) | 0.0554 | 0.971 | 0.661 | 0.741 | -0.129
